Results: patent US20220339257A1, “METHODS TO INCREASE THE SENSITIVITY AND REVERSING THE RESISTANCE TO DRUGS” (Biomarker Strategies, LLC, priority 2019, published 2022)

Columns and labels:
Type in all cases: cell-based
BICR-16 cells = test: Western blot of protein biomarkers; conditions: IFN-γ (100 ng/mL)+TNF-α (10 ng/mL), 24 hours
Description: (§1) MTA and EM effects on protein biomarker expression were measured by western blotting. For the assay cell lines (Ca9-22, PE/CA-PJ15, HTB-38, HPAF-II, CAL27, BICR-16, A-253, Calu-6, PC-9, H1838, RPMI-7951 and A7) were cultured and treated with doses of MTAs alone, EMs alone and in combination and then lysed for protein analysis. This method can readily be conducted under adherent or suspension conditions, manually or on automated instruments, such as SnapPath. A total of 0.3×10^6 cells per well were seeded in 6 well plates with 10% FBS-containing media and incubated for 24 hours. Cells were then treated with MTA and/or EM concentrations for 24 hours. For total protein extraction, briefly, each sample media was collected, and wells were washed with HMS, and the wash was combined with its respective media collection. Cells were then detached using Accutase solution and again collected in its respective sample media and another HMS well wash and collection was performed. All cell solutions were centrifuged, washed with ice-cold PBS, and centrifuged again. Cell pellets were lysed in 250 μL of ice-cold 1× lysis buffer with protease and phosphatase inhibitor cocktails and incubated for 10 minutes on ice. Lysates were clarified with a centrifugation (14,000 rpm) for 10 minutes at 4° C. Cell lysates were quantified using Bio-Rad DC Protein Assay (Bio-Rad Cat. #5000116).
(§2) For all western blots, an equal amount of protein (3-5 μg) was loaded into SDS-polyacrylamide gels (Mini-Protean TGX Precast Gel; Bio-Rad, e.g. 7.5%, Cat. #4561024; 10%, Cat. #4561035; 12%, Cat. #4561045; or 4-15%, Cat. #4561085). Proteins were separated at 215V for at least 30 minutes in 1× Tris/Glycine/SDS buffer (Bio-Rad Cat. #1610772) and transferred to PVDF membranes using a Trans-Blot Turbo (Bio-Rad Cat. #1704155) for 7 minutes in transfer buffer (Trans-Blot Turbo Transfer Kit, Bio-Rad Cat. #1704273). Blots were blocked at room temperature for 1 hour with 5% non-fat dry milk in tris-buffered saline with Tween 20 (TBST; 15 mM Tris-HCl, pH 7.5, 200mMNaCl and 0.1% Tween 20). Membranes were incubated with primary antibodies at 4° C. overnight and at room temperature for 1 hour the next day; all primary antibodies were diluted following manufacturer's specifications in TBST with either 5% BSA or 5% non-fat dry milk. Membranes were washed in TBST for 5 minutes, three times, and incubated with HRP-conjugated secondary antibodies diluted 1:5000 in TBST with 5% non-fat dry milk at room temperature for 1 hour (anti-rabbit IgG, Bio-Rad Cat. #1706515; or anti-mouse IgG, Bio-Rad Cat. #1706516). Membranes were then washed in TBST for 10 minutes, three times, and target proteins were identified using Clarity Western ECL Substrate (Bio-Rad Cat. #1705061) on autoradiography film (GenHunter Cat. #B581, Nashville, Tenn., USA). Other assay types, such as Luminex multiplexed immunoassays, ICC, IHC, flow cytometry, etc. can be used readily.

HTB-38 cells = test: Western blot of protein biomarkers
Description: as §1, §2

PC-9 cells = test: Western blot of protein biomarkers; conditions: trametinib (100 nM)+TNF-α (10 ng/mL), 24 hours
Description: as §1, §2

[1] = tested on: panel of cell lines that included NSCLC, HNSCC, melanoma, and CRC; test: WST8 in vitro sensitivity to MTAs with and without EM
Description: Day 1: cells were harvested cells from flask (4 mL accutase for T175 for 3-5 minutes), and spin down for 5 mins at 1200 rpm. The supernatant was poured off, and the pellet gently resuspended in 1 mL media. Countess counts were performed, and the cells were diluted in media (10% FBS). With multi-channel pipette, 2500 cells were seeded in 100 uL of media (10% FBS) in each well of 96 well plate. The cells were let to adhere and grow for 24 hours. Day 2: serial drug dilutions of MTAs+/−EMs at 5× of concentrations (as done above) were performed in media (10% FBS). 20 uL of media form each well of the 96 well plate (80 uL media left in wells) was removed, and 20 uL of appropriate 5× drug dilutions was added to each respective well (for a 1× conc). The cells were incubated with drug for 72 hours in 37C incubator. Day 5: 10 uL of WST-8 reagent was added to each well of the 96 well plate and mixed gently. the plates were incubated up to 4 hours at 37C in dark, and absorbance readings were taken at […] and 600 nm wavelengths at 1, 2, 3 and 4h, until control absorbance levels were 1.5-2.0).
We used a panel of cell lines that included NSCLC, HNSCC, melanoma, and CRC. These cell lines are a good model system harboring similar (epi)genetic changes found in patients' tumors. We used the WST8 assay to determine the in vitro sensitivity to various MTAs with and without EM1.

Ca9-22 cells = test: Western blot of protein biomarkers; conditions: compared to either alone
Description: as §1, §2

PE/CA-PJ15 cells = test: Western blot of protein biomarkers; conditions: osimertinib (100 nM)+IFN-α (200 ng/mL)
Description: as §1, §2

[2] = compared to either therapy alone
[3] = osimertinib (1000 nM)+IFN-α (200 ng/mL)

Row | Molecule | PARP cleavage (BICR-16 cells; compared to MTA and EM alone) | LC3II over LC3I expression (BICR-16 cells; compared to either alone) | Ki67 degradation and/or fragmentation pattern (BICR-16 cells; [2]) | LC3II expression (HTB-38 cells; IFN-γ (100 ng/mL)+TNF-α) | p62 expression (HTB-38 cells; IFN-γ (100 ng/mL)+TNF-α) | PARP cleavage (HTB-38 cells; IFN-γ (100 ng/mL)+TNF-α (10 ng/mL), 24 hours, compared to MTA and EM alone) | Ki67 degradation and/or fragmentation pattern (HTB-38 cells; IFN-γ (100 ng/mL)+TNF-α (10 ng/mL), 24 hours, compared to either therapy alone) | PARP cleavage (PC-9 cells; compared to MTA and EM alone) | p-AKT (Ser473) expression (PC-9 cells; compared to either MTA or EM alone) | Ki67 degradation and/or fragmentation pattern (PC-9 cells; [2]) | response enhancement (in vitro sensitivity to various MTAs with and without EM, WST8) [1] | LC3II over LC3I expression (Ca9-22 cells; GSK-458 (10 nM)+IFN-α (200 ng/mL), 24 hours) | LC3II expression (Ca9-22 cells; [3]) | p62 expression (Ca9-22 cells; [3]) | p62 expression (PE/CA-PJ15 cells) | LC3II over LC3I expression (PE/CA-PJ15 cells; 24 hours, compared to either alone)
1 | tumor necrosis factor-alpha [EM2] | very strong PARP cleavage | marked increase in LC3II over LC3I expression | marked increase in the distinct degradation and/or fragmentation pattern of Ki67 | increased expression | increased expression | very strong PARP cleavage | marked increase in the distinct degradation and/or fragmentation pattern of Ki67 | very strong PARP cleavage | strong reduction in p-AKT (Ser473) expression | marked increase in the distinct degradation and/or fragmentation pattern of Ki67 | no, minimal and strong response enhancement | – | – | – | – | –
2 | interferon-alpha-1 (protein, UniProt P01562 24-189, looked up, enhancer molecule, cytokine purchased from Sigma) Interferon alpha-1/13: CDLPETHSLDNRRTLMLLAQMSRISPSSCLMDRHDFGFPQEEFDGNQFQKAPAISVLHELIQQIFNLFTTKDSSAAWDEDLLDKFCTELYQQLNDLEACVMQEERVGETPLMNADSILAVKKYFRRITLYLTEKKYSPCAWEVVRAEIMRSLSLSTNLQERLRRKE | – | – | – | – | – | – | – | – | – | – | – | marked increase in LC3II over LC3I expression | LC3II upregulation | reduction in p62 | increased expression | marked increase in LC3II over LC3I expression
